The source of these data is US12410160B2 (Gilead Sciences, Inc., priority 2021, dated 2025).

Structures are written as SMILES. Like-named read-outs stand apart in the source and are kept apart here.

In one assay the target is human KHK-C (Homo sapiens (Human), UniProt P50053). As to the kind of experiment: KHK Biochemical Assay (IC50), ADP-Glo, KHK-C. The conditions noted are these: ADP-Glo; average of at least two separate assays. In short, it runs like this:
(§1)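 His-tagged enzyme expressed in BL21 (DE3), Ni-NTA purified. Compounds, serially diluted 1:3 in DMSO, pre-incubated 30 min with enzyme in 50 mM Hepes pH 7.4, 140 mM KCl, 5 mM MgCl2, 0.01% Triton-X, then ATP and fructose added; 4 h at room temperature. ADP formation read by ADP-Glo luminescence.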
For orientation: ADP-Glo first removes unused ATP, then detects ADP through luciferase.

A further assay addresses human KHK-A (Homo sapiens (Human), UniProt P50053). As to the kind of experiment: KHK Biochemical Assay (IC50), ADP-Glo, KHK-A. The settings on record: ADP-Glo; average of at least two separate assays. In short, it runs like this: as §1
The target in assay [1] is KHK-C expressed in NRK-52E cells (Homo sapiens (Human), UniProt P50053). The assay is described as follows: KHK-C Cell-based Assay (EC50), NRK CTG, fructose-mediated ATP-depletion.
Sequence of KHK-C expressed in NRK-52E cells (P50053 whole entry): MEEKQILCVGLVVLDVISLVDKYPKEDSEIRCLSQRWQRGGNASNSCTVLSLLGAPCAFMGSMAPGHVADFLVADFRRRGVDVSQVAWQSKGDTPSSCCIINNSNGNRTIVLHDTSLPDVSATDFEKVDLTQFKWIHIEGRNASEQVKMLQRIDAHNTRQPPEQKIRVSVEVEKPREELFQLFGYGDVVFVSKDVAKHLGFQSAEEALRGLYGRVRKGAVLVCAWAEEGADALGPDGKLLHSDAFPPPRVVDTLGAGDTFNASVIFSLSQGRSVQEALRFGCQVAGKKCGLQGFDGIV

Sequence of human KHK-C (P50053 whole entry): as above
Sequence of human KHK-A (P50053 other isoform, or with tags, fused parts or gaps): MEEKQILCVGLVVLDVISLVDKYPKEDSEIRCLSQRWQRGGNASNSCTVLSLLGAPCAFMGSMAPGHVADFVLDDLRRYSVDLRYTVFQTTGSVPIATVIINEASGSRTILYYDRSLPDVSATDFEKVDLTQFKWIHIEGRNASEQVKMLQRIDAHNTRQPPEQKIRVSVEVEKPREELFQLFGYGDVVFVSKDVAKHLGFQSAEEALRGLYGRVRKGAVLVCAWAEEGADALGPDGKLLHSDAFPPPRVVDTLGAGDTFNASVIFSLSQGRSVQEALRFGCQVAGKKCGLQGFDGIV

With `Cc1ncc(-c2nc(N3CC[C@@H]3C)nc3c2CCC3)s1` [Example 34, (S)-2-methyl-5-(2-(2-methylazetidin-1-yl)-6,7-dihydro-5H-cyclopenta[d]pyrimidin-4-yl)thiazole], the values for the IC50 against human KHK-C and on human KHK-A were 0.0645 µM and 0.0527 µM, respectively. In assay [1], this compound came in with a concentration for a half-maximal effect (EC50) of 0.142 µM.
For `C[C@H]1CCN1c1nc2c(c(-c3cscn3)n1)CCC2` [Example 36, (S)-4-(2-(2-methylazetidin-1-yl)-6,7-dihydro-5H-cyclopenta[d]pyrimidin-4-yl)thiazole], the IC50 against human KHK-C stood at 0.146 µM; on human KHK-A it was 0.147 µM. Besides, the EC50 in assay [1] turned out to be 0.434 µM.
As to `C[C@H]1[C@H](O)CN1c1nc(-c2cccc(S(N)(=O)=O)c2)c2c(cnn2C)n1` [Example 38], the IC50 against human KHK-C was determined as 0.836 µM; at human KHK-A, 0.812 µM. The compound further gave a concentration for a half-maximal effect (EC50) in assay [1] of 12.2 µM.
Consider `C[C@H]1CCN1c1nc2c(c(-c3ccc4[nH]ncc4c3)n1)CCC2` [Example 39, (S)-5-(2-(2-methylazetidin-1-yl)-6,7-dihydro-5H-cyclopenta[d]pyrimidin-4-yl)-1H-indazole], for which the half-maximal inhibitory concentration (IC50) at human KHK-C is 0.113 µM; against human KHK-A, 0.0862 µM. In assay [1], this compound gave an EC50 of 0.211 µM.
Regarding `CC(=O)Nc1cccc(-c2nc(N3C[C@@H](O)[C@@H]3C)nc3c2CCC3)c1` [Example 41], the results for the concentration for half-maximal inhibition (IC50) on human KHK-C and against human KHK-A were 0.125 µM and 0.102 µM, respectively. Also, the response in assay [1] was half-maximal at 0.602 µM (EC50).
For `C[C@H]1[C@H](O)CN1c1nc2c(c(-c3cccc(NS(C)(=O)=O)c3)n1)CCC2` [Example 43, N-(3-(2-((2S,3R)-3-hydroxy-2-methylazetidin-1-yl)-6,7-dihydro-5H-cyclopenta[d]pyrimidin-4-yl)phenyl)methanesulfonamide], in that order: 0.0481 µM, 0.0668 µM and 0.225 µM.
Take `C[C@H]1CCN1c1nc2c(c(-c3ccc4cn[nH]c4c3)n1)CCC2` [Example 44, (S)-6-(2-(2-methylazetidin-1-yl)-6,7-dihydro-5H-cyclopenta[d]pyrimidin-4-yl)-1H-indazole]: the 50% inhibitory concentration (IC50) worked out at 0.259 µM against human KHK-C and 0.286 µM at human KHK-A. Besides, in assay [1], it took 0.329 µM to reach a half-maximal effect (EC50).
Turning to `C[C@H]1[C@H](O)CN1c1nc2c(c(-c3cccc(C4CC4C(=O)O)c3)n1)CCC2` (stereo partly drawn) [Example 47, 2-(3-(2-((2S,3R)-3-hydroxy-2-methylazetidin-1-yl)-6,7-dihydro-5H-cyclopenta[d]pyrimidin-4-yl)phenyl)cyclopropane-1-carboxylic acid], the half-maximal inhibitory concentration (IC50) against human KHK-C is 0.0152 µM; on human KHK-A it was 0.0294 µM. Further, the concentration for a half-maximal effect (EC50) in assay [1] was found to be 2.37 µM.
Regarding `C[C@H]1[C@H](F)CN1c1nc2c(c(-c3cccc(C4CC4C(=O)O)c3)n1)CCC2` (stereo partly drawn) [Example 48], the concentration for half-maximal inhibition (IC50) on human KHK-C amounted to 0.0053 µM; at human KHK-A, 0.0071 µM. The 50% effective concentration (EC50) in assay [1] amounted to 0.0771 µM.
In the case of `C[C@H]1[C@H](O)CN1c1nc2c(c(-c3ccc(C(N)=O)s3)n1)CCC2` [Example 57, 5-(2-((2S,3R)-3-hydroxy-2-methylazetidin-1-yl)-6,7-dihydro-5H-cyclopenta[d]pyrimidin-4-yl)thiophene-2-carboxamide], the 50% inhibitory concentration (IC50) stood at 0.0178 µM against human KHK-C and 0.0129 µM against human KHK-A. The compound further came in with an EC50 in assay [1] of 0.0658 µM.
For `C[C@H]1[C@H](F)CN1c1nc2c(c(-c3ccc(C(N)=O)s3)n1)CCC2` [Example 58], in that order: 0.0079 µM, 0.0058 µM and 0.0095 µM.
Consider `C[C@H]1CCN1c1nc(-c2cccc(C(N)=O)c2)c2c(n1)[C@@H]1CC[C@H]2C1` [Example 63, 3-((5S,8R)-2-((S)-2-methylazetidin-1-yl)-5,6,7,8-tetrahydro-5,8-methanoquinazolin-4-yl)benzamide], for which the IC50 against human KHK-C turned out to be 0.0953 µM; against human KHK-A it was 0.112 µM. This compound came in with an EC50 in assay [1] of 0.138 µM.
`C[C@H]1CCN1c1nc2c(c(-c3cccc(C(=O)NCC(=O)O)c3)n1)CCC2` [Example 66, (S)-(3-(2-(2-methylazetidin-1-yl)-6,7-dihydro-5H-cyclopenta[d]pyrimidin-4-yl)benzoyl)glycine]: the 50% inhibitory concentration (IC50) at human KHK-C turned out to be 0.0545 µM; against human KHK-A, 0.0648 µM. Besides, the EC50 in assay [1] was found to be 35.5 µM.
As to `C[C@H]1CCN1c1nc2c(c(-c3ccc4[nH]nc(CC(=O)O)c4c3)n1)CCC2` [Example 70, (S)-2-(5-(2-(2-methylazetidin-1-yl)-6,7-dihydro-5H-cyclopenta[d]pyrimidin-4-yl)-1H-indazol-3-yl)acetic acid], the IC50 at human KHK-C was found to be 0.0517 µM; at human KHK-A it was 0.0294 µM. Further, in assay [1], the EC50 was greater than 5 µM.
For the compound `C[C@H]1CCN1c1nc2c(c(-c3ccc4c(c3)S(=O)(=O)NC4)n1)CCC2` [Example 72, (S)-6-(2-(2-methylazetidin-1-yl)-6,7-dihydro-5H-cyclopenta[d]pyrimidin-4-yl)-2,3-dihydrobenzo[d]isothiazole 1,1-dioxide], the IC50 at human KHK-C came out at 0.015 µM; on human KHK-A, 0.018 µM. The midpoint of the response in assay [1], the EC50, lay at 0.0298 µM.
Regarding `C[C@H]1CCN1c1nc2c(c(-c3cccc(S(=O)(=O)NCC(=O)O)c3)n1)CCC2` [Example 74, (S)-((3-(2-(2-methylazetidin-1-yl)-6,7-dihydro-5H-cyclopenta[d]pyrimidin-4-yl)phenyl)sulfonyl)glycine], the IC50 on human KHK-C turned out to be 0.0263 µM; on human KHK-A, 0.0229 µM. A half-maximal response in assay [1] (EC50) required 0.859 µM.
Turning to `C[C@H]1CCN1c1nc2c(c(-c3cccc(NS(=O)(=O)CC(=O)O)c3)n1)CCC2` [Example 81, (S)-2-(N-(3-(2-(2-methylazetidin-1-yl)-6,7-dihydro-5H-cyclopenta[d]pyrimidin-4-yl)phenyl)sulfamoyl)acetic acid], the IC50 against human KHK-C turned out to be 0.0076 µM; against human KHK-A it was 0.0095 µM. The 50% effective concentration (EC50) in assay [1] was greater than 5 µM.
`C[C@H]1[C@H](O)CN1c1nc2c(c(-c3cccc(NS(=O)(=O)CC(=O)O)c3)n1)CCC2` [Example 82]: the IC50 on human KHK-C and against human KHK-A was 0.0149 µM each time. Besides, the EC50 in assay [1] is greater than 5 µM.
As for `C[C@H]1CCN1c1nc2c(c(-c3cccc(NS(=O)(=O)CCC(=O)O)c3)n1)CCC2` [Example 83, (S)-3-(N-(3-(2-(2-methylazetidin-1-yl)-6,7-dihydro-5H-cyclopenta[d]pyrimidin-4-yl)phenyl)sulfamoyl)propanoic acid], the figures for the IC50 against human KHK-C and against human KHK-A were 0.0103 µM and 0.0325 µM, respectively. The EC50 in assay [1] is greater than 5 µM.
For the compound `C[C@H]1CCN1c1nc2c(c(-c3ccc4c(c3)S(=O)(=O)NC4=O)n1)CCC2` [Example 86, (S)-6-(2-(2-methylazetidin-1-yl)-6,7-dihydro-5H-cyclopenta[d]pyrimidin-4-yl)benzo[d]isothiazol-3(2H)-one 1,1-dioxide], the values for the 50% inhibitory concentration (IC50) on human KHK-C and at human KHK-A were 0.0386 µM and 0.0502 µM, respectively. Also, the half-maximal effective concentration (EC50) in assay [1] is greater than 5 µM.
Turning to `C[C@H]1CCN1c1nc2c(c(-c3cccc(CS(C)(=O)=O)c3)n1)CCC2` [Example 88, (S)-2-(2-methylazetidin-1-yl)-4-(3-((methylsulfonyl)methyl)phenyl)-6,7-dihydro-5H-cyclopenta[d]pyrimidine], the half-inhibitory concentration (IC50) against human KHK-C stood at 0.0628 µM; on human KHK-A, 0.0753 µM. The EC50 in assay [1] was 0.214 µM.
Regarding `C[C@H]1CCN1c1nc2c(c(-c3ccc(C(=O)NCCO)cc3)n1)CCC2` [Example 91, (S)—N-(2-hydroxyethyl)-4-(2-(2-methylazetidin-1-yl)-6,7-dihydro-5H-cyclopenta[d]pyrimidin-4-yl)benzamide], the IC50 was determined as 0.0556 µM against human KHK-C and 0.0452 µM on human KHK-A. In addition, the concentration giving a half-maximal response (EC50) in assay [1] was 0.12 µM.
Regarding `NS(=O)(=O)c1cccc(-c2nc(N3CC[C@@H]3CO)nc3c2CCC3)c1` [Example 92, (R)-3-(2-(2-(hydroxymethyl)azetidin-1-yl)-6,7-dihydro-5H-cyclopenta[d]pyrimidin-4-yl)benzenesulfonamide], the half-inhibitory concentration (IC50) against human KHK-C came to 0.093 µM; against human KHK-A, 0.0823 µM. For the same compound, it took 0.368 µM to reach a half-maximal effect in assay [1] (EC50).
As for `NC(=O)c1ccc(-c2nc(N3CC[C@@H]3CO)nc3c2CCC3)cc1` [Example 95, (R)-4-(2-(2-(hydroxymethyl)azetidin-1-yl)-6,7-dihydro-5H-cyclopenta[d]pyrimidin-4-yl)benzamide], the 50% inhibitory concentration (IC50) stood at 0.0431 µM on human KHK-C and 0.0603 µM against human KHK-A. Also, in assay [1], the EC50 is 0.221 µM.
Regarding `C[C@H]1CCN1c1nc2c(c(-c3ccc(-c4nnn[nH]4)cc3)n1)CCC2` [Example 104, (S)-4-(4-(1H-tetrazol-5-yl)phenyl)-2-(2-methylazetidin-1-yl)-6,7-dihydro-5H-cyclopenta[d]pyrimidine], the IC50 at human KHK-C is 0.0462 µM; against human KHK-A, 0.119 µM. The compound further displayed a concentration for a half-maximal effect (EC50) in assay [1] greater than 5 µM.
Regarding `C[C@@H]1CN(c2nc3c(c(-c4ccc(C(N)=O)cc4)n2)CCC3)[C@H]1C` [Example 106], the IC50 at human KHK-C amounted to 0.126 µM; at human KHK-A, 0.148 µM. Besides, the concentration for a half-maximal effect (EC50) in assay [1] (read-out: NRK CTG EC50, NRK-52E cells, fructose-mediated ATP-depletion, Cell-Titer Glo) amounted to 0.209 µM.
In the case of `C[C@H]1CN(c2nc3c(c(-c4ccc(C(N)=O)cc4)n2)CCC3)[C@H]1C` [Example 107, 4-(2-((2S,3S)-2,3-dimethylazetidin-1-yl)-6,7-dihydro-5H-cyclopenta[d]pyrimidin-4-yl)benzamide], the 50% inhibitory concentration (IC50) turned out to be 1.06 µM on human KHK-C and 1.55 µM at human KHK-A. In assay [1], it took 2.92 µM to reach a half-maximal effect (EC50).
For the compound `C[C@H]1CCN1c1nc2c(c(-c3cn4cnc(C(N)=O)c4s3)n1)CCC2` [Example 119, (S)-2-(2-(2-methylazetidin-1-yl)-6,7-dihydro-5H-cyclopenta[d]pyrimidin-4-yl)imidazo[5,1-b]thiazole-7-carboxamide], the results for the half-inhibitory concentration (IC50) against human KHK-C and on human KHK-A were 0.0024 µM and 0.0134 µM, respectively. Besides, in assay [1], the EC50 worked out at 0.0066 µM.

The term IC50 denotes the concentration needed to halve the response being measured. The low end stands for greater potency in that assay, the high end for weaker potency in that assay. What is called EC50 is the midpoint of the concentration-response curve.
